Converted amounts (≈) assume the structure as drawn.
What was measured:
Candida albicans [1] = test: Antifungal activity against Candida albicans MTCC 183 by agar streak dilution method; type: functional
Pseudomonas aeruginosa [2] = test: Antibacterial activity against Pseudomonas aeruginosa MTCC 741 by agar streak dilution method; type: functional
Candida albicans [3] = test: Antifungal activity against Candida albicans MTCC 183 at 100 ug/disc by paper disc diffusion technique; type: functional; details: read-out: IZ
Aspergillus fumigatus [4] = test: Antifungal activity against Aspergillus fumigatus MTCC 343 by agar streak dilution method; type: functional
[5] = system: Mycobacterium tuberculosis; test: Antituberculosis activity against Mycobacterium tuberculosis H37Rv by BACTEC MGIT method; type: functional
Escherichia coli [6] = test: Antibacterial activity against Escherichia coli MTCC 739 at 100 ug/disc by paper disc diffusion technique; type: functional; details: read-out: IZ
Staphylococcus aureus [7] = test: Antibacterial activity against Staphylococcus aureus MTCC 96 by agar streak dilution method; type: functional
Klebsiella pneumoniae [8] = test: Antibacterial activity against Klebsiella pneumoniae MTCC 109 by agar streak dilution method; type: functional
Shigella flexneri [9] = test: Antibacterial activity against Shigella flexneri MTCC 1457 by agar streak dilution method; type: functional
Escherichia coli [10] = test: Antibacterial activity against Escherichia coli MTCC 739 by agar streak dilution method; type: functional
[11] = system: Mycobacterium tuberculosis; test: Antituberculosis activity against Mycobacterium tuberculosis H37Rv at 6.25 ug/ml by Lowenstein-Jensen method; type: functional
Klebsiella pneumoniae [12] = test: Antibacterial activity against Klebsiella pneumoniae MTCC 109 at 100 ug/disc by paper disc diffusion technique; type: functional; details: read-out: IZ
Salmonella typhi [13] = test: Antibacterial activity against Salmonella typhi MTCC 733 by agar streak dilution method; type: functional, Salmonella enterica subsp. enterica serovar Typhi; details: Salmonella enterica
Salmonella typhi [14] = test: Antibacterial activity against Salmonella typhi MTCC 733 at 100 ug/disc by paper disc diffusion technique; type: functional, Salmonella enterica subsp. enterica serovar Typhi; details: Salmonella enterica, read-out: IZ
Pseudomonas aeruginosa [15] = test: Antibacterial activity against Pseudomonas aeruginosa MTCC 741 at 100 ug/disc by paper disc diffusion technique; type: functional; details: read-out: IZ
Aspergillus niger [16] = test: Antifungal activity against Aspergillus niger MTCC 282 by agar streak dilution method; type: functional
Aspergillus clavatus [17] = test: Antifungal activity against Aspergillus clavatus MTCC 1323 at 100 ug/disc by paper disc diffusion technique; type: functional; details: read-out: IZ
Proteus vulgaris [18] = test: Antibacterial activity against Proteus vulgaris MTCC 1771 by agar streak dilution method; type: functional
Staphylococcus aureus [19] = test: Antibacterial activity against Staphylococcus aureus MTCC 96 at 100 ug/disc by paper disc diffusion technique; type: functional; details: read-out: IZ
Aspergillus niger [20] = test: Antifungal activity against Aspergillus niger MTCC 282 at 100 ug/disc by paper disc diffusion technique; type: functional; details: read-out: IZ
Proteus vulgaris [21] = test: Antibacterial activity against Proteus vulgaris MTCC 1771 at 100 ug/disc by paper disc diffusion technique; type: functional; details: read-out: IZ
Aspergillus fumigatus [22] = test: Antifungal activity against Aspergillus fumigatus MTCC 343 at 100 ug/disc by paper disc diffusion technique; type: functional; details: read-out: IZ
Bacillus cereus [23] = test: Antibacterial activity against Bacillus cereus MTCC 430 by agar streak dilution method; type: functional
Aspergillus clavatus [24] = test: Antifungal activity against Aspergillus clavatus MTCC 1323 by agar streak dilution method; type: functional
Shigella flexneri [25] = test: Antibacterial activity against Shigella flexneri MTCC 1457 at 100 ug/disc by paper disc diffusion technique; type: functional; details: read-out: IZ
[26] = system: Mycobacterium tuberculosis; test: Antituberculosis activity against Mycobacterium tuberculosis H37Rv by Lowenstein-Jensen method; type: functional
Bacillus cereus [27] = test: Antibacterial activity against Bacillus cereus MTCC 430 at 100 ug/disc by paper disc diffusion technique; type: functional; details: read-out: IZ

Row | SMILES | MIC (Candida albicans [1]) [µg/mL] | MIC (Pseudomonas aeruginosa [2]) [µg/mL] | zone of inhibition at 100 µg/disc (Candida albicans [3]) [mm] | MIC (Aspergillus fumigatus [4]) [µg/mL] | MIC [5] [µg/mL] | zone of inhibition at 100 µg/disc (Escherichia coli [6]) [mm] | MIC (Staphylococcus aureus [7]) [µg/mL] | MIC (Klebsiella pneumoniae [8]) [µg/mL] | MIC (Shigella flexneri [9]) [µg/mL] | zone of inhibition at 100 µg/disc (Klebsiella pneumoniae [12]) [mm] | MIC (Salmonella typhi [13]) [µg/mL] | zone of inhibition at 100 µg/disc (Salmonella typhi [14]) [mm] | zone of inhibition at 100 µg/disc (Pseudomonas aeruginosa [15]) [mm] | MIC (Aspergillus niger [16]) [µg/mL] | zone of inhibition at 100 µg/disc (Aspergillus clavatus [17]) [mm] | MIC (Proteus vulgaris [18]) [µg/mL] | zone of inhibition at 100 µg/disc (Staphylococcus aureus [19]) [mm] | zone of inhibition at 100 µg/disc (Aspergillus niger [20]) [mm] | zone of inhibition at 100 µg/disc (Proteus vulgaris [21]) [mm] | zone of inhibition at 100 µg/disc (Aspergillus fumigatus [22]) [mm] | also measured
1 | CCOc1ccc(NC(=O)CSc2nnc(Cn3cnc4ccccc43)o2)cc1 | 25 (≈ 61.1 µM) | 100 (≈ 244 µM) | 24 | 100 (≈ 244 µM) | > 6.25 | 23 | 50 (≈ 122 µM) | 100 (≈ 244 µM) | 25 (≈ 61.1 µM) | < 10 | 50 (≈ 122 µM) | 21 | 16 | 50 (≈ 122 µM) | 16 | 12.5 (≈ 30.5 µM) | 14 | 17 | 25 | 11 | MIC (Escherichia coli [10]): 25 µg/mL (≈ 61.1 µM); inhibition at 6.25 µg/mL [11]: 98%; MIC (Bacillus cereus [23]): 50 µg/mL (≈ 122 µM); MIC (Aspergillus clavatus [24]): 100 µg/mL (≈ 244 µM); zone of inhibition at 100 µg/disc (Shigella flexneri [25]): 22 mm; MIC [26]: 50 µg/mL (≈ 122 µM); zone of inhibition at 100 µg/disc (Bacillus cereus [27]): 18 mm
2 | N#Cc1ccc(NC(=O)CSc2nnc(Cn3cnc4ccccc43)o2)cc1 | 100 (≈ 256 µM) | 50 (≈ 128 µM) | 11 | 100 (≈ 256 µM) | > 6.25 | 19 | 25 (≈ 64 µM) | 25 (≈ 64 µM) | 100 (≈ 256 µM) | 24 | 50 (≈ 128 µM) | 20 | 21 | 100 (≈ 256 µM) | 13 | 50 (≈ 128 µM) | 18 | < 10 | 19 | 14 | MIC (Escherichia coli [10]): 50 µg/mL (≈ 128 µM); inhibition at 6.25 µg/mL [11]: 96%; MIC (Bacillus cereus [23]): 50 µg/mL (≈ 128 µM); MIC (Aspergillus clavatus [24]): 100 µg/mL (≈ 256 µM); zone of inhibition at 100 µg/disc (Shigella flexneri [25]): 17 mm; MIC [26]: 62.5 µg/mL (≈ 160 µM); zone of inhibition at 100 µg/disc (Bacillus cereus [27]): 19 mm
3 | O=C(CSc1nnc(Cn2cnc3ccccc32)o1)Nc1ccc(Br)cc1 | 100 (≈ 225 µM) | 12.5 (≈ 28.1 µM) | 16 | 25 (≈ 56.3 µM) | > 6.25 | 19 | 6.25 (≈ 14.1 µM) | 50 (≈ 113 µM) | 25 (≈ 56.3 µM) | 22 | 50 (≈ 113 µM) | 22 | 26 | 100 (≈ 225 µM) | 23 | 100 (≈ 225 µM) | 23 | 16 | 17 | 24 | MIC (Escherichia coli [10]): 50 µg/mL (≈ 113 µM); inhibition at 6.25 µg/mL [11]: 99%; MIC (Bacillus cereus [23]): 12.5 µg/mL (≈ 28.1 µM); MIC (Aspergillus clavatus [24]): 50 µg/mL (≈ 113 µM); zone of inhibition at 100 µg/disc (Shigella flexneri [25]): 22 mm; MIC [26]: 12.5 µg/mL (≈ 28.1 µM); zone of inhibition at 100 µg/disc (Bacillus cereus [27]): 26 mm
4 | NNC(=O)c1ccncc1 [ISONIAZID] | – | – | – | – | 0.2 (≈ 1.46 µM) | – | – | – | – | – | – | – | – | – | – | – | – | – | – | – | –
5 | O=C(CSc1nnc(Cn2cnc3ccccc32)o1)Nc1ccc([N+](=O)[O-])cc1 | 100 (≈ 244 µM) | 50 (≈ 122 µM) | 15 | 100 (≈ 244 µM) | > 6.25 | 12 | 12.5 (≈ 30.5 µM) | 100 (≈ 244 µM) | 100 (≈ 244 µM) | 20 | 100 (≈ 244 µM) | 13 | 20 | 50 (≈ 122 µM) | 24 | 100 (≈ 244 µM) | 20 | 18 | 14 | 18 | MIC (Escherichia coli [10]): 100 µg/mL (≈ 244 µM); inhibition at 6.25 µg/mL [11]: 94%; MIC (Bacillus cereus [23]): 100 µg/mL (≈ 244 µM); MIC (Aspergillus clavatus [24]): 50 µg/mL (≈ 122 µM); zone of inhibition at 100 µg/disc (Shigella flexneri [25]): 19 mm; MIC [26]: 100 µg/mL (≈ 244 µM); zone of inhibition at 100 µg/disc (Bacillus cereus [27]): 13 mm
6 | O=C(O)c1cn(C2CC2)c2cc(N3CCNCC3)c(F)cc2c1=O [CIPROFLOXACIN] | – | 0.78 (≈ 2.35 µM) | – | – | – | 32 | 1.56 (≈ 4.71 µM) | 0.78 (≈ 2.35 µM) | 1.56 (≈ 4.71 µM) | 33 | 0.39 (≈ 1.18 µM) | 30 | 33 | – | – | 0.39 (≈ 1.18 µM) | 30 | – | 31 | – | MIC (Bacillus cereus [23]): 0.39 µg/mL (≈ 1.18 µM); zone of inhibition at 100 µg/disc (Shigella flexneri [25]): 32 mm; zone of inhibition at 100 µg/disc (Bacillus cereus [27]): 31 mm
7 | CC(=O)N1CCN(c2ccc(OCC3COC(Cn4ccnc4)(c4ccc(Cl)cc4Cl)O3)cc2)CC1 (configuration not stated) [KETOCONAZOLE] | 1.56 (≈ 2.94 µM) | – | 33 | 0.78 (≈ 1.47 µM) | – | – | – | – | – | – | – | – | – | 1.56 (≈ 2.94 µM) | 31 | – | – | 30 | – | 29 | MIC (Aspergillus clavatus [24]): 0.78 µg/mL (≈ 1.47 µM)

Reference: ChEMBL document CHEMBL2034905, “Synthesis of benzimidazolyl-1,3,4-oxadiazol-2ylthio-N-phenyl (benzothiazolyl) acetamides as antibacterial, antifungal and antituberculosis agents” (Eur J Med Chem, 2012)
